Each structure is given as a SMILES string. Where two headings read alike, the source gives them in different places.

For assay [1], the system named is KAR-mediated EPSCs at mossy fiber synapses. Put plainly: Evoked KAR-mediated EPSCs at recurrent mossy fiber synapses in acute hippocampal slices from pilocarpine-treated mice. The following applies: 1 μM; DGCs from WT pilocarpine-treated mice; data not shown. Type of assay: cell-based, mouse. On the procedure:
All experiments were approved by the Institut National de la Santé et de la Recherche Médicale animal care and use committee of May 29, 2001 (2001-464) and the European community council directive of Nov. 24, 1986 (86/609/EEC). Mice (FVB/N background) had access to food and water ad libitum and were housed under a 12 h light/dark cycle at 22-24° C. Male GluK2−/− and WT mice (P60-80) were given scopolamine (1 mg/kg) subcutaneously (s.c.) 15 minutes prior to s.c. administration of pilocarpine (200-600 mg/kg). A ramp protocol was used whereby animals were given an initial dose of 200 mg/kg followed by half-doses every 30 minutes until seizures appeared. […] Diazepam (10 mg/kg) was administered 45 minutes after onset of SE. […]
Cultured or acute slices were individually transferred to a recording chamber maintained at 30-32° C. and continuously perfused (2 ml/min) with oxygenated normal or adapted ACSF containing 5 μM gabazine. […] Signals were analyzed off-line using Clampfit 9.2 (PClamp) and MiniAnalysis 6.0.1 (Synaptosoft, Decatur, Ga.). In organotypic slices, spontaneous EPSCs were recorded at the reversal potential for GABAergic currents (Vh=−70 mV). To characterize the nature and kinetic properties of fast and slow events, miniature EPSCs (mEPSCs) evoked in Sr2+ conditions (external Ca2+ was substituted with 1.2 mM Sr2+) were recorded in DGCs from GluK2−/− and WT slices. […]

Assay [2] concerns dentate gyrus of organotypic slices. Put plainly: Spontaneous interictal-like activity, extracellular field recordings in pilocarpine-treated organotypic hippocampal slice cultures. Type of assay: cell-based, mouse. On the procedure: (§1) Hippocampal/entorhinal cortex slices (350 μm) were prepared from pre-genotyped GluK2−/− and WT mice (P9-10, FVB/N background) using a McIlwain tissue chopper. Slices were placed on mesh inserts (Millipore # PICMORG50) inside culture dishes containing 1 ml of the following medium: MEM 50%, HS 25%, HBSS 25%, HEPES 15 mM glucose 6.5 mg/ml and insulin 0.1 mg/ml. Culture medium was changed every 2-3 days and slices maintained in an incubator at 37° C./5% CO2. Pilocarpine (0.5 μM) was added to the medium at 5 D.I.V and removed at 7 D.I.V; slices were utilized for experiments from 9 D.I.V.
Cultured or acute slices were individually transferred to a recording chamber maintained at 30-32° C. and continuously perfused (2 ml/min) with oxygenated normal or adapted ACSF containing 5 μM gabazine. Local field potentials were made in the granule cell layer of the DG with glass electrodes (2-3 MΩ; filled with normal ACSF) using a DAM-80 amplifier (low filter, 1 Hz; […], 3 KHz; World Precision Instruments, Sarasota, Fla.). For evoked synaptic transmission, electrical stimulation was performed with a bipolar NiCh electrode (#762000, AM systems). Whole-cell voltage-clamp recordings of DGCs were made using tight-seal electrodes (5-8 MΩ) filled with an internal solution containing the following (in mM): 135 gluconic acid, 135 CsOH, 10 MgCl2, 0.1 CaCl2, 1 EGTA, 10 HEPES, 2 MgATP, 0.4 NaGTP, and 0.5% biocytin, pH 7.25. We used a Multiclamp 700B amplifier (Molecular Devices): data were filtered at 2 kHz, digitized (20 kHz) with a Digidata 1440A (Molecular Devices) to a PC, and acquired using Clampex 10.1 software (PClamp, Molecular Devices). Signals were analyzed off-line using Clampfit 9.2 (PClamp) and MiniAnalysis 6.0.1 (Synaptosoft, Decatur, Ga.). In organotypic slices, spontaneous EPSCs were recorded at the reversal potential for GABAergic currents (Vh=−70 mV). To characterize the nature and kinetic properties of fast and slow events, miniature EPSCs (mEPSCs) evoked in Sr2+ conditions (external Ca2+ was substituted with 1.2 mM Sr2+) were recorded in DGCs from GluK2−/− and WT slices. Electrical stimulation was made in the molecular layer in the continued presence of 5 μM gabazine and 40 μM D-APV; asynchronous mEPSCs were measured during the 300 ms period after the stimulus artifact. […] In cultured slices, visual representation of time-frequency analysis of local field potentials was performed using Autosignal software (Seasolve 1.7). In brief, field activity was highpass-filtered (>100 Hz) and time-frequency analysis performed using a continuous wavelet (Morlet) that reported integrated power (time-integral-squared amplitude, TISA) across time. Filtered traces were also analyzed by Fourier analysis (Hamming) using Clampfit 9.2. In acute hippocampal slices, intensity of antidromically-evoked bursts was quantified using coastline index (Epsztein et al., 2005).
The role of KARs in spontaneous epileptiform activity was then tested using extracellular field recordings in cultured slices. Recordings were performed in 5 mM K+-containing ACSF and in the presence of 5 μM gabazine in order to enhance neuronal excitability and to reliably record stereotyped spontaneous interictal-like activity (Berdichevsky et al., 2012).

The target of another assay is T1, KARs (Mus musculus, UniProt P39087+Q61626).
T1 construct: from tissue; host or cells: dentate granule cells in pilocarpine-treated organotypic hippocampal/entorhinal slice cultures from WT mice (FVB/N)
T1 sequence (P39087 32-908): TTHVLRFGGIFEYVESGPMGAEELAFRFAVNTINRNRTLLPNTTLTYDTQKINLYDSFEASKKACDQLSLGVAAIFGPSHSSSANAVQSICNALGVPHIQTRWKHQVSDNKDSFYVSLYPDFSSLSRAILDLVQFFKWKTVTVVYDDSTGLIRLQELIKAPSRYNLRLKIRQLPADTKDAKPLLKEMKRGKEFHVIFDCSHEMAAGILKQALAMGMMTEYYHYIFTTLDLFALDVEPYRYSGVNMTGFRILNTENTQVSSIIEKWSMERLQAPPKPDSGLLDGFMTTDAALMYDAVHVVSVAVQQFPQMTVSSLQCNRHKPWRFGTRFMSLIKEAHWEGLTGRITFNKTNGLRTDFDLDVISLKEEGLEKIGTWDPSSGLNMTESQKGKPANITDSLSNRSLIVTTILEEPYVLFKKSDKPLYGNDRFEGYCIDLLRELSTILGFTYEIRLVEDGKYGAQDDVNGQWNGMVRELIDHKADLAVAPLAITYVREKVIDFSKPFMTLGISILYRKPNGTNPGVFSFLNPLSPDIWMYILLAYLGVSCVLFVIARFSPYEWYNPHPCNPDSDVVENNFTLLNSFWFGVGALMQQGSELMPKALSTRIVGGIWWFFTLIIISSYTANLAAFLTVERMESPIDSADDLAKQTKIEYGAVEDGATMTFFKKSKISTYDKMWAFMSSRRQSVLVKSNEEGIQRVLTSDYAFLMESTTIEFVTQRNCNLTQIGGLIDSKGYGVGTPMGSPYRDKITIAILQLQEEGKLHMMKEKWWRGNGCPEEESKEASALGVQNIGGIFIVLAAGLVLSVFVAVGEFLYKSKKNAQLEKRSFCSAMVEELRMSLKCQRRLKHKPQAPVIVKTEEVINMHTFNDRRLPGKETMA
T1 sequence (Q61626 15-979): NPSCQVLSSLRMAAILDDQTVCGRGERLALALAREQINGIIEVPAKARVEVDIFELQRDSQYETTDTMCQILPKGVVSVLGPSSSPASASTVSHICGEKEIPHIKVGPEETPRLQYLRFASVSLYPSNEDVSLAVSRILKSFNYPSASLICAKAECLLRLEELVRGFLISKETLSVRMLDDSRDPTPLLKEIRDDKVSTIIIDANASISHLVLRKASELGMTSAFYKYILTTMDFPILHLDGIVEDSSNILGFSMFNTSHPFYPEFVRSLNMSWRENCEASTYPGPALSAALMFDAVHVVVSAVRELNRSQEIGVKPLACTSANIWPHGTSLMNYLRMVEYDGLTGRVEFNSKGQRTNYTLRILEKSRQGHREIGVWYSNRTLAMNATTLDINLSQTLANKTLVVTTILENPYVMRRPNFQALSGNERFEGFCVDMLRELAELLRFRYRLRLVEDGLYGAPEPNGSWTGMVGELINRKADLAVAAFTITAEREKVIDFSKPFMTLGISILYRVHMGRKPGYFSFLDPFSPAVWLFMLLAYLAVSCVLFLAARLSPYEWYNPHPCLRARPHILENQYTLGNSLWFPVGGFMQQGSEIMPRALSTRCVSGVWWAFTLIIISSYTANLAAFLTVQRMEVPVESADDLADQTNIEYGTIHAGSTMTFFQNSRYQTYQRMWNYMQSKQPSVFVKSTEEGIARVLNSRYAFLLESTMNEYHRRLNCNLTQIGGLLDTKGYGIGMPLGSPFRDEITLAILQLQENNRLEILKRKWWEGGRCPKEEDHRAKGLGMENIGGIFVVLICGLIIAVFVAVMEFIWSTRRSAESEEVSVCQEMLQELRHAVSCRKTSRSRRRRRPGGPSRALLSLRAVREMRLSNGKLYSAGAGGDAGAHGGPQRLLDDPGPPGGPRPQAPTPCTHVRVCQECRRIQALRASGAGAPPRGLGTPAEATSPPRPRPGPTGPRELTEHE
The assay is classed as cell-based. As for the experimental part: as §1
Cultured or acute slices were individually transferred to a recording chamber maintained at 30-32° C. and continuously perfused (2 ml/min) with oxygenated normal or adapted ACSF containing 5 μM gabazine. Local field potentials were made in the granule cell layer of the DG with glass electrodes (2-3 MΩ; filled with normal ACSF) using a DAM-80 amplifier (low filter, 1 Hz; […], 3 KHz; World Precision Instruments, Sarasota, Fla.). For evoked synaptic transmission, electrical stimulation was performed with a bipolar NiCh electrode (#762000, AM systems). […] Signals were analyzed off-line using Clampfit 9.2 (PClamp) and MiniAnalysis 6.0.1 (Synaptosoft, Decatur, Ga.). In organotypic slices, spontaneous EPSCs were recorded at the reversal potential for GABAergic currents (Vh=−70 mV). To characterize the nature and kinetic properties of fast and slow events, miniature EPSCs (mEPSCs) evoked in Sr2+ conditions (external Ca2+ was substituted with 1.2 mM Sr2+) were recorded in DGCs from GluK2−/− and WT slices. Electrical stimulation was made in the molecular layer in the continued presence of 5 μM gabazine and 40 μM D-APV; asynchronous mEPSCs were measured during the 300 ms period after the stimulus artifact. […] Filtered traces were also analyzed by Fourier analysis (Hamming) using Clampfit 9.2. In acute hippocampal slices, intensity of antidromically-evoked bursts was quantified using coastline index (Epsztein et al., 2005).

Another assay relates to AMPARs. The experiment in a line: Remaining fast (AMPAR-mediated) EPSCs in dentate granule cells of GluK2-/- organotypic slices. The assay is classed as cell-based, mouse. The following applies: 30 μM, data not shown. As for the experimental part: as §1
Cultured or acute slices were individually transferred to a recording chamber maintained at 30-32° C. and continuously perfused (2 ml/min) with oxygenated normal or adapted ACSF containing 5 μM gabazine. […] Signals were analyzed off-line using Clampfit 9.2 (PClamp) and MiniAnalysis 6.0.1 (Synaptosoft, Decatur, Ga.). In organotypic slices, spontaneous EPSCs were recorded at the reversal potential for GABAergic currents (Vh=−70 mV). To characterize the nature and kinetic properties of fast and slow events, miniature EPSCs (mEPSCs) evoked in Sr2+ conditions (external Ca2+ was substituted with 1.2 mM Sr2+) were recorded in DGCs from GluK2−/− and WT slices. […] Filtered traces were also analyzed by Fourier analysis (Hamming) using Clampfit 9.2. […]

[3] abbreviates: slices from WT mice, 10 μM SYM2081 or 5 μM UBP310.

As for `N[C@H](C(=O)O)C1[C@@H](C(=O)O)[C@@H]1C(=O)O` (stereo partly drawn) [DCGIV], the “inhibition of KAR-mediated EPSCs” value in assay [1] came to 84%.
Consider `NS(=O)(=O)c1cc2c(cc1Cl)NC(C1CC3C=CC1C3)NS2(=O)=O` (stereo not drawn) [CTZ, cyclothiazide], for which the “recovery of reduced interictal-like activity in GluK2-/- slices” value in assay [2] (GluK2-/- slices, bath application) was “could be recovered”.
Consider `C[C@H](C[C@H](N)C(=O)O)C(=O)O` [SYM2081, (2S,4R)-4-Methylglutamate], for which, in assay [2] (setting [3]), the “alteration of the PD phase (power of paroxysmal discharge)” value is on record as “No significant alteration” and the “reduction of power of the bursts in the late MB phase” value came to 68%. Moreover, in assay [2] (slices from WT mice, 10 μM SYM2081 or 5 μM UBP310, 5 mM K+ ACSF, 5 μM gabazine), the “reduction of frequency of interictal-like activity” value is 47%. Also, the “frequency of interictal-like activity” value in assay [2] (slices from WT mice, 10 μM SYM2081 or 5 μM UBP310, without antagonist 3.2±0.4, mean±SEM) is 1.69±0.3 events/min. Also, at KARs, the “effect on KAR-mediated mEPSCs” value is “abolished”.
For `CNC(=O)N1N=C(c2ccc(N)cc2)c2cc3c(cc2CC1C)OCO3` (stereo not drawn) [GYKI53655], on KARs (WT cultured slices, SYM2081 10 μM, UBP310 5 μM, Sr2+ conditions, 5 μM gabazine, 40 μM D-APV), the “effect on KAR-mediated mEPSCs” value was “insensitive”. In the assay with AMPARs, the “block of remaining fast EPSCs” value is “fully blocked”.

The values are drawn from patent US10016424B2, “Method and pharmaceutical composition for use in the treatment of epilepsy” (INSERM (Institut National de la Sante et de la Recherche …, priority 2013, dated 2018).
